Measurements published in patent publication US20250057873A1, “Intestinal Tumor Suppressor, PGE2 Production Inhibitor, and IL-22BP Production Promoter” (TOKYO UNIVERSITY OF SCIENCE FOUNDATION, priority 2021, published 2025).
Values belong to the compound of their own block, whether it stands above or below them.

How the values were obtained:
[1] = tested on: intestinal polyp-infiltrating cells; experiment: PGE2 stimulation of intestinal polyp-infiltrating cells of Apc^Min/+ mice, qPCR; format: cell-based, mouse; settings: PGE2 20 hours
Protocol: FIG. 6i: Tumor-infiltrating cells of the Apc^Min/+ mice (n=2, cells that were pooled during collection) were collected, stimulated with indicated doses of PGE2 for 20 hours, and then the expression of indicated genes was measured by qPCR. The data are mean±SD of 3 wells.
(§1) Infiltrating cells in mouse/human colorectal tumor/non-tumor tissues (2×10^5) or mouse/human colorectal tumor/non-tumor tissue pieces (3 mm×3 mm cut) were cultured with Dectin-1 ligands Curdlan, OXCA, or laminarin, or with PGE2 stimulation for 20 h at 37° C. under 5% CO2 in 96-well flat-bottomed plates (Falcon, Becton Dickinson) in a volume of 0.2 ml RPMI containing 10% FBS and 1% streptomycin plus penicillin. After the culture, cells or tissues were collected and mRNA expression of tumor- or anti-tumor-associated genes was measured by qPCR described in Quantitative reverse transcription PCR section described later.
(§2) Total RNA was extracted with Mammalian Total RNA Miniprep kit (Sigma Aldrich). […]

CRC tumor tissues = experiment: Human CRC tumor tissues cultured in the presence of PGE2, qPCR; format: cell-based
Protocol: FIG. 7i: Tumor tissues of CRC patients were collected, minced, and then cultured in the presence of PGE2 for 20 hours. Data are mean±SD of 3 wells. The data in (FIGS. 7g to 7i) are representative of two independent experiments. *p<0.05, **p<0.01, and ****p<0.0001.
as §1, §2

colorectal polyps = experiment: PGE2 administration to DSS-treated Apc^Min/+Clec7a^-/- mice; format: in vivo, mouse
Protocol: (§3) FIG. 6e: 8-week-old Apc^Min/+Clec7a^−/− mice (n=3) were administered with 2% by mass of DSS for 1 week, and then were administered with PGE2 ([…]) or PBS intraperitoneally every other day for 4 weeks. After euthanization, generation of colorectal polyps in the Apc^Min/+Clec7a^−/− mice with or without PGE2 treatment was examined in comparison to that of the Apc^Min/+ mice (n=3/group).
as §3, with “6f:” for “6e:”, “without the” for “without”
FIG. 6g: 8-week-old Apc^Min/+Clec7a^−/− mice (n=3) were administered with 2% by mass of DSS for 1 week, and then were administered with PGE2 ([…]) or PBS intraperitoneally every other day for 4 weeks. After euthanization, populations of MHC-II^+CD11c^+DCs and MHC-II^−CD11b^+MDSCs in the polyps in the Apc^Min/+Clec7a^−/− mice were measured by flow cytometry (n=3/group).
FIG. 6h: 8-week-old Apc^Min/+Clec7a^−/− mice (n=3) were administered with 2% by mass of DSS for 1 week, and then administered with PGE2 ([…]) or PBS intraperitoneally every other day for 4 weeks. After euthanization, expression of indicated genes in the Apc^Min/+Clec7a^−/− mice was examined by qPCR (n=3/group).
Apc^Min/+ or Apc^Min/+Clec7a^−/− mice were normally raised in SPF condition for 19 to 21 weeks after being born, and polyps in small intestines emerged spontaneously. For the induction of colorectal tumor, same mice with 6 to 7 weeks old were treated with 1% by mass DSS for 1 week, and then were normally raised for another 4 to 5 weeks before sacrifice.

COX-2 = biological target: T1, COX-2 (Homo sapiens, UniProt P35354); settings: cited from earlier work
T1 sequence (P35354 18-604): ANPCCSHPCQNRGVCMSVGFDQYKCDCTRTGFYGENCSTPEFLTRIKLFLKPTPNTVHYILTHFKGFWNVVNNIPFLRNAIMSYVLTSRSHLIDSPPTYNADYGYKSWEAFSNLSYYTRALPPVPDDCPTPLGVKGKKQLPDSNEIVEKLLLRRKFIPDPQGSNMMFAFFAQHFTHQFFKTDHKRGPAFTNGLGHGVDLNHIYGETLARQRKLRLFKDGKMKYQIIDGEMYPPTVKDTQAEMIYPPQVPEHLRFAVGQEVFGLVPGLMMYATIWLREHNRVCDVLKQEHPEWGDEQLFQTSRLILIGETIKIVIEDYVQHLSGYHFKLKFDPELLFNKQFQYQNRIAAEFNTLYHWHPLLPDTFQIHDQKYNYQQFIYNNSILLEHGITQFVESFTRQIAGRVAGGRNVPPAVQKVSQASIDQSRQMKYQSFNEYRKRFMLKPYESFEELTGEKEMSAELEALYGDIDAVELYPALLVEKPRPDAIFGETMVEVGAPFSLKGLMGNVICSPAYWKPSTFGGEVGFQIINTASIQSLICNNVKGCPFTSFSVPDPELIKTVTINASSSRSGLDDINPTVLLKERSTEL

[2] = tested on: AOM-DSS-induced colorectal polyps; experiment: AOM-3DSS colorectal tumor model, diet supplemented with 5% laminarin; format: in vivo, mouse
Protocol: FIG. 6a: Oral administration of laminarin suppresses tumor formation in the large intestine, and PGE2 administration promotes tumor formation. AOM was administered to C57BL/6J mice, and 5% by mass of laminarin-containing powdered food was administered (continued for 10 days/cycle) from 3 days before to the end of the one-week administration of DSS, for three cycles in total. At Week 11 from the first AOM administration, the mice were sacrificed and the generation of tumors in the large intestines was observed macroscopically (n=7/group).
FIG. 6b: AOM was administered to C57BL/6J mice, and 5% by mass of laminarin-containing powdered food was administered (continued for 10 days/cycle) from 3 days before to the end of the one-week administration of DSS, for three cycles in total. At Week 11 from the first AOM administration, the mice were sacrificed and the number of the colorectal polyps with indicated sizes was counted (n=7/group).
FIG. 6c: AOM was administered to C57BL/6J mice, and 5% by mass of laminarin-containing powdered food was administered (continued for 10 days/cycle) from 3 days before to the end of the one-week administration of DSS, for three cycles in total. The mice were sacrificed at Week 11 after the first AOM administration and the concentration of PGE2 in tissue homogenates was measured by the ELISA (n=7/group).
FIG. 6d: AOM was administered to C57BL/6J mice, and 5% by mass of laminarin-containing powdered food was administered (continued for 10 days/cycle) from 3 days before to the end of the one-week administration of DSS, for three cycles in total. The mice were sacrificed at Week 11 from the first AOM administration and an mRNA expression of CD11b (Itgam) was examined by qPCR (n=7/group). […]
Polyp and non-polyp tissues from mouse colon were harvested and were put into 2 ml tubes containing 500 μl lysis buffer for protein [RIPA buffer. […] After being centrifuged, supernatant of the tissue homogenate was collected and PGE2 concentration was measured by ELISA Development Kit for PGE2 (R&D systems, Minneapolis, USA). […]

Dectin-1 [3] = biological target: T2, Dectin-1 (Mus musculus, UniProt Q6QLQ4); experiment: Stimulation of Apc^Min/+ polyp-infiltrating leukocytes / CD11b+ cells with Curdlan, with or without laminarin pre-treatment, qPCR; format: cell-based; settings: laminarin 4 hours before Curdlan, polyp-infiltrating leukocytes
T2 construct: CD11b^+ cells and CD11c^+ cells were purified from colorectal polyps with autoMACS; endogenous in cells; host or cells: primary CD11b+/CD11c+ cells or all polyp-infiltrating cells from colorectal/intestinal polyps of WT (C57BL/6J, AOM-DSS) or Apc^Min/+ mice
T2 sequence (Q6QLQ4 1-244): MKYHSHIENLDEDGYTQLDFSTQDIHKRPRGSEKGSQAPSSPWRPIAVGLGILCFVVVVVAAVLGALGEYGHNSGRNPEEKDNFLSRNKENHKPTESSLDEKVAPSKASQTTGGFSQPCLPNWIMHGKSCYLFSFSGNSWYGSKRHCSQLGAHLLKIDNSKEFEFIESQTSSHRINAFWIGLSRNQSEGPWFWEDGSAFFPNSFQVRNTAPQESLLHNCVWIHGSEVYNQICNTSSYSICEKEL
Protocol: (§4) FIG. 5f: All polyp-infiltrating cells of the Apc^Min/+ mice were collected, and were stimulated with Curdlan for 20 hours, and then the expression of the genes involved in the PGE2 synthesis was measured by qPCR. A laminarin treatment was performed for 4 hours before the Curdlan treatment.
as §4, with “5g: Purified CD11b^+” for “5f: All”, “treatment. The data in (FIGS. 5a to 5g) are representative of two independent experiments and expressed as mean±SD. *p<0.05, **p<0.01, and ***p<0.001.” for “treatment.”
as §1, with “later. […]” for “later.”

Dectin-1 [4] = biological target: T2, Dectin-1; experiment: Stimulation of mouse colorectal polyp CD11b+ and CD11c+ cells with OXCA, with or without laminarin pre-treatment, qPCR; format: cell-based; settings: laminarin for 3 hours before OXCA 16 hours
Protocol: FIG. 2d: WT SPF mice were administered with AOM, followed by three cycles of DSS. After 11 weeks, the mice were sacrificed, and CD11b^+ cells and CD11c^+ cells were purified from colorectal polyps with autoMACS. The purified cells were stimulated with an agonistic β-glucan OXCA, or were treated with an antagonistic β-glucan laminarin for 3 hours followed by the stimulation with OXCA for 16 hours, and the expression of Il6 and Il1b was measured by qPCR. The data in (FIGS. 2a to 2d) are representative of two independent experiments, and the data in (FIGS. 2a, 2b, and 2d) are expressed as mean±SD. *p<0.05, **p<0.01, ***p<0.001, and ****p<0.0001.
FIG. 4h: C57BL/6J mice were administered with AOM, and were administered with DSS for three cycles. […] The cells were then stimulated with OXCA and expression of Il-22 bp was measured by qPCR. […] The data in (FIG. 4a and FIGS. 4d to 4h) are representative of two independent experiments, and the data in (FIGS. 4a, 4d, and 4f to 4h) are expressed as mean±SD. **p<0.01, ***p<0.001, and ****p<0.0001.
FIG. 11d: WT mice administered with AOM followed by DSS for three cycles for 12 weeks were sacrificed, and colon CD11b^+ and CD11c^+ myeloid-derived cells were purified by autoMACS. […] The data in (FIGS. 11a, 11c, and 11d) are expressed as mean±SD. *p<0.05, **p<0.01, and ***p<0.001. […]

[5] = after PGE2 administration, flow cytometry
[6] = after PGE2 administration, qPCR

expression of CD11b (Itgam), Arginase-1 (Arg1), Cyclin D1 (Ccnd1) and c-Myc (Myc) (colorectal polyps; [6]): enhanced
Compound: CCCCC[C@H](O)/C=C/[C@H]1[C@H](O)CC(=O)[C@@H]1C/C=C\CCCC(=O)O [PGE2, prostaglandin E2]
Il-22 bp expression [1]: directly inhibited | expression of MDSC markers Arg1, CD11b and Nos2 [1]: directly induced | expression of CD33 and CD11B (ITGAM) (CRC tumor tissues; PGE2 20 hours in vitro): directly induced | human IL-22BP expression (CRC tumor tissues; PGE2 20 hours, dose-dependent): suppressed | polyp number (colorectal polyps; PGE2 intraperitoneally every other day for 4 weeks, DSS-treated Apc^Min/+Clec7a^-/- mice): increased to the similar level of that in Apc^Min/+ mice | infiltration of CD11b+ MDSCs in polyps (colorectal polyps; [5]): promoted | infiltration of CD11c+ DCs and T cells in polyps (colorectal polyps; [5]): suppressed | Il-22 bp expression (colorectal polyps; [6]): suppressed

Compound: CC(=O)Oc1ccccc1C(=O)O [aspirin]
occurrence or progression of colorectal cancer and polyps (COX-2): can reduce

effect on Curdlan-induced Ptges3, Ptgs1 and Ptgs2 expression (Dectin-1 [3]): inhibited | effect on OXCA-induced Il6 and Il1b expression (Dectin-1 [4]): inhibited
Compound: Laminarin
burden of colorectal polyps versus control mice ([2]; 5% laminarin diet during 3 cycles of DSS, WT mice, AOM-3DSS): significantly lower | intestinal PGE2 production (tissue homogenate, ELISA) ([2]; 5% laminarin diet, AOM-3DSS mice): suppressed | CD11b (Itgam) expression ([2]; 5% laminarin diet, AOM-3DSS mice, qPCR): reduction
